Source: PMC13031062 (Acta Pharmaceutica Sinica. B, 2025)
Read-outs that look alike come from different tables or passages of the source.

How the values were obtained:
[1] = target: T1, acyl-CoA synthetase long-chain family member 3 (ACSL3) (Homo sapiens, UniProt O95573); assay: LC-MS of OA-CoA formed by recombinant ACSL3; type: biochemical
[2] = target: T1, acyl-CoA synthetase long-chain family member 3 (ACSL3); assay: microscale thermophoresis; type: binding
[3] = target: T1, acyl-CoA synthetase long-chain family member 3 (ACSL3); assay: microscale thermophoresis; type: binding; remark: listed apart in the source
[4] = target: T1, acyl-CoA synthetase long-chain family member 3 (ACSL3); assay: microscale thermophoresis; type: binding; remark: listed apart in the source

T1 sequence (O95573 whole entry): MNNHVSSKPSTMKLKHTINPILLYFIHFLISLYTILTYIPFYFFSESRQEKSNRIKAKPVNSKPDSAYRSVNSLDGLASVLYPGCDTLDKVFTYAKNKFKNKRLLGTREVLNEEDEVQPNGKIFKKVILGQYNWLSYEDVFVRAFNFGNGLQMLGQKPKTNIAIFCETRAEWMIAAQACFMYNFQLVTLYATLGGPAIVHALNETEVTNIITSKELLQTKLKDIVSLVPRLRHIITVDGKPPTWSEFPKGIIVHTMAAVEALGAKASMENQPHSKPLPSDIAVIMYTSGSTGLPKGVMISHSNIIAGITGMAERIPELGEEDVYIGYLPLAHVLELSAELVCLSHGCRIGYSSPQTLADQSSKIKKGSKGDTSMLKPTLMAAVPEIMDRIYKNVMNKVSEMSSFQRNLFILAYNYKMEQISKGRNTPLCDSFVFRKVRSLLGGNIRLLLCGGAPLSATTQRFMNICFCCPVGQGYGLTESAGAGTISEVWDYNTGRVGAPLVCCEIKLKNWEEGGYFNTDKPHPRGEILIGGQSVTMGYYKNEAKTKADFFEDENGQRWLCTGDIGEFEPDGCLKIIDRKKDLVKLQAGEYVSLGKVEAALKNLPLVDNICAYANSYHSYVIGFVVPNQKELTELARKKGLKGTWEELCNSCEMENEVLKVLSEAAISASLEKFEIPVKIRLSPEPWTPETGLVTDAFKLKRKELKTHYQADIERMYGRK

CCCCCCCC/C=C\CCCCCCCC(=O)O [OA, oleic acid]
LC-MS of OA-CoA formed by recombinant ACSL3 [1]: VA analogues promoted acylation reaction with OA as substrate in the presence of ACSL3

CNC(=O)/C=C(C)/C=C/C=C(C)/C=C/C1=C(C)CCCC1(C)C [D3, (2E,4E,6E,8E)-N,3,7-trimethyl-9-(2,6,6-trimethylcyclohex-1-en-1-yl)nona-2,4,6,8-tetraenamide]
Kd [2]: 1280 nM

CC1=C(/C=C/C(C)=C/C=C/C(C)=C/CO)C(C)(C)CCC1 [VA, vitamin A]
Kd [3]: 1850 nM

CC1=C(/C=C/C(C)=C/C=C/C(C)=C/C(=O)O)C(C)(C)CCC1 [ATRA, all-trans retinoic acid]
Kd [4]: 12.8 µM
